Key:
[1] = Compound cytotoxicity, XTT-based colorimetric assay; type: cell-based; conditions: human; uninfected MT2 cells, day 4, XTT assay
Summary of the method: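 Run under the antiviral-assay protocol but without virus. Viability was read on day 4 and CC50 values were derived from the readout.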

recombinant NL4-3 virus = assay: HIV cell culture assay (antiviral activity, luciferase readout); type: cell-based; conditions: Human immunodeficiency virus 1, NL43, MT2, MT-2 cells infected for 4-5 days with recombinant NL4-3 virus carrying Renilla luciferase
Summary of the method: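 MT-2 cells infected for 4-5 days with NL4-3 reference virus carrying Renilla luciferase in place of part of nef, in presence of serial compound dilutions. Luciferase read with live-cell substrate; EC50 from median effect equation fit.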

SMILES | CC50 at 4 day [1] [nM] | EC50 (recombinant NL4-3 virus) [nM]
COc1ccnc(-c2ccc3c(=O)n(-c4ccc(Cl)c5c(NS(C)(=O)=O)nn(C)c45)c([C@H](Cc4cc(F)cc(F)c4)NC(=O)Cn4nc(C(F)F)c5c4C(F)(F)[C@@H]4C[C@H]54)nc3n2)n1 (atropisomer, axis not shown; (P)) [Example 56, N-((S)-1-((3P)-3-(4-chloro-1-methyl-3-(methylsulfonamido)-1H-indazol-7-yl)-7-(4-methoxypyrimidin-2-yl)-4-oxo-3,4-dihydropyrido[2,3-d]pyrimidin-2-yl)-2-(3,5-difluorophenyl)ethyl)-2-((3bS,4aR)-3-(difluoromethyl)-5,5-difluoro-3b,4,4a,5-tetrahydro-1H-cyclopropa[3,4]cyclopenta[1,2-c]pyrazol-1-yl)acetamide] | > 100 | 0.051
Cn1nc(NS(C)(=O)=O)c2c(Cl)ccc(-n3c([C@H](Cc4cc(F)cc(F)c4)NC(=O)Cn4nc(C(F)F)c5c4C(F)(F)[C@@H]4C[C@H]54)nc4nc(-c5cccc(C(F)F)c5)ccc4c3=O)c21 (atropisomer, axis not shown; (P)) [Example 23, N-((S)-1-((3P)-3-(4-chloro-1-methyl-3-(methylsulfonamido)-1H-indazol-7-yl)-7-(3-(difluoromethyl)phenyl)-4-oxo-3,4-dihydropyrido[2,3-d]pyrimidin-2-yl)-2-(3,5-difluorophenyl)ethyl)-2-((3bS,4aR)-3-(difluoromethyl)-5,5-difluoro-3b,4,4a,5-tetrahydro-1H-cyclopropa[3,4]cyclopenta[1,2-c]pyrazol-1-yl)acetamide] | > 100 | 0.11
Cc1nccnc1-c1ccc2c(=O)n(-c3ccc(Cl)c4c(NS(C)(=O)=O)nn(C)c34)c([C@H](Cc3cc(F)cc(F)c3)NC(=O)Cn3nc(C(F)F)c4c3C(F)(F)[C@@H]3C[C@H]43)nc2n1 (atropisomer, axis not shown; (P)) [Example 7, N-((S)-1-((3P)-3-(4-chloro-1-methyl-3-(methylsulfonamido)-1H-indazol-7-yl)-7-(3-methylpyrazin-2-yl)-4-oxo-3,4-dihydropyrido[2,3-d]pyrimidin-2-yl)-2-(3,5-difluorophenyl)ethyl)-2-((3bS,4aR)-3-(difluoromethyl)-5,5-difluoro-3b,4,4a,5-tetrahydro-1H-cyclopropa[3,4]cyclopenta[1,2-c]pyrazol-1-yl)acetamide] | > 100 | 0.02
Cn1nc(NS(C)(=O)=O)c2c(Cl)ccc(-n3c([C@H](Cc4cc(F)cc(F)c4)NC(=O)Cn4nc(C(F)F)c5c4C(F)(F)[C@@H]4C[C@H]54)nc4nc(-c5cncc(C(F)(F)F)n5)ccc4c3=O)c21 (atropisomer, axis not shown; (P)) [Example 13, N-((S)-1-((3P)-3-(4-chloro-1-methyl-3-(methylsulfonamido)-1H-indazol-7-yl)-4-oxo-7-(6-(trifluoromethyl)pyrazin-2-yl)-3,4-dihydropyrido[2,3-d]pyrimidin-2-yl)-2-(3,5-difluorophenyl)ethyl)-2-((3bS,4aR)-3-(difluoromethyl)-5,5-difluoro-3b,4,4a,5-tetrahydro-1H-cyclopropa[3,4]cyclopenta[1,2-c]pyrazol-1-yl)acetamide] | > 100 | 0.04
Cn1nc(NS(C)(=O)=O)c2c(Cl)ccc(-n3c([C@H](Cc4cc(F)cc(F)c4)NC(=O)Cn4nc(C(F)F)c5c4C(F)(F)[C@@H]4C[C@H]54)nc4nc(-c5nccc(C(F)(F)F)n5)ccc4c3=O)c21 (atropisomer, axis not shown; (P)) [Example 5, N-((S)-1-((3P)-3-(4-chloro-1-methyl-3-(methylsulfonamido)-1H-indazol-7-yl)-4-oxo-7-(4-(trifluoromethyl)pyrimidin-2-yl)-3,4-dihydropyrido[2,3-d]pyrimidin-2-yl)-2-(3,5-difluorophenyl)ethyl)-2-((3bS,4aR)-3-(difluoromethyl)-5,5-difluoro-3b,4,4a,5-tetrahydro-1H-cyclopropa[3,4]cyclopenta[1,2-c]pyrazol-1-yl)acetamide] | > 100 | 0.021
COc1ncc(-c2ccc3c(=O)n(-c4ccc(Cl)c5c(NS(C)(=O)=O)nn(C)c45)c([C@H](Cc4cc(F)cc(F)c4)NC(=O)Cn4nc(C(F)F)c5c4C(F)(F)[C@@H]4C[C@H]54)nc3n2)s1 (atropisomer, axis not shown; (P)) [Example 82, N-((S)-1-((3P)-3-(4-chloro-1-methyl-3-(methylsulfonamido)-1H-indazol-7-yl)-7-(2-methoxythiazol-5-yl)-4-oxo-3,4-dihydropyrido[2,3-d]pyrimidin-2-yl)-2-(3,5-difluorophenyl)ethyl)-2-((3bS,4aR)-3-(difluoromethyl)-5,5-difluoro-3b,4,4a,5-tetrahydro-1H-cyclopropa[3,4]cyclopenta[1,2-c]pyrazol-1-yl)acetamide] | > 100 | 0.069
Cn1nc(NS(C)(=O)=O)c2c(Cl)ccc(-n3c([C@H](Cc4cc(F)cc(F)c4)NC(=O)Cn4nc(C(F)F)c5c4C(F)(F)[C@@H]4C[C@H]54)nc4nc(-c5cc(C(F)(F)F)n(CC(C)(F)F)n5)ccc4c3=O)c21 (single isomer, unassigned) [Example 94] | > 100 | 0.16
Cn1nc(NS(C)(=O)=O)c2c(Cl)ccc(-n3c([C@H](Cc4cc(F)cc(F)c4)NC(=O)Cn4nc(C(F)F)c5c4C(F)(F)[C@@H]4C[C@H]54)nc4nc(-n5ccnc5)ccc4c3=O)c21 (atropisomer, axis not shown; (P)) [Example 64, N-((S)-1-((3P)-3-(4-chloro-1-methyl-3-(methylsulfonamido)-1H-indazol-7-yl)-7-(1H-imidazol-1-yl)-4-oxo-3,4-dihydropyrido[2,3-d]pyrimidin-2-yl)-2-(3,5-difluorophenyl)ethyl)-2-((3bS,4aR)-3-(difluoromethyl)-5,5-difluoro-3b,4,4a,5-tetrahydro-1H-cyclopropa[3,4]cyclopenta[1,2-c]pyrazol-1-yl)acetamide] | > 100 | 0.53
Cc1ccnc(-c2ccc3c(=O)n(-c4ccc(Cl)c5c(NS(C)(=O)=O)nn(C)c45)c([C@H](Cc4cc(F)cc(F)c4)NC(=O)Cn4nc(C(F)F)c5c4C(F)(F)[C@@H]4C[C@H]54)nc3n2)n1 (atropisomer, axis not shown; (P)) [Example 10, N-((S)-1-((3P)-3-(4-chloro-1-methyl-3-(methylsulfonamido)-1H-indazol-7-yl)-7-(4-methylpyrimidin-2-yl)-4-oxo-3,4-dihydropyrido[2,3-d]pyrimidin-2-yl)-2-(3,5-difluorophenyl)ethyl)-2-((3bS,4aR)-3-(difluoromethyl)-5,5-difluoro-3b,4,4a,5-tetrahydro-1H-cyclopropa[3,4]cyclopenta[1,2-c]pyrazol-1-yl)acetamide] | > 100 | 0.03
Cn1nc(NS(C)(=O)=O)c2c(Cl)ccc(-n3c([C@H](Cc4cc(F)cc(F)c4)NC(=O)Cn4nc(C(F)F)c5c4C(F)(F)[C@@H]4C[C@H]54)nc4nc(-c5cncc(Cl)c5)ccc4c3=O)c21 (atropisomer, axis not shown; (P)) [Example 29, N-((S)-1-((3P)-3-(4-chloro-1-methyl-3-(methylsulfonamido)-1H-indazol-7-yl)-7-(5-chloropyridin-3-yl)-4-oxo-3,4-dihydropyrido[2,3-d]pyrimidin-2-yl)-2-(3,5-difluorophenyl)ethyl)-2-((3bS,4aR)-3-(difluoromethyl)-5,5-difluoro-3b,4,4a,5-tetrahydro-1H-cyclopropa[3,4]cyclopenta[1,2-c]pyrazol-1-yl)acetamide] | > 100 | 0.057
Cn1nc(NS(C)(=O)=O)c2c(Cl)ccc(-n3c([C@H](Cc4cc(F)cc(F)c4)NC(=O)Cn4nc(C(F)F)c5c4C(F)(F)[C@@H]4C[C@H]54)nc4nc(-c5cnn(C6CC6)c5)ccc4c3=O)c21 (atropisomer, axis not shown; (P)) [Example 74, N-((S)-1-((3P)-3-(4-chloro-1-methyl-3-(methylsulfonamido)-1H-indazol-7-yl)-7-(1-cyclopropyl-1H-pyrazol-4-yl)-4-oxo-3,4-dihydropyrido[2,3-d]pyrimidin-2-yl)-2-(3,5-difluorophenyl)ethyl)-2-((3bS,4aR)-3-(difluoromethyl)-5,5-difluoro-3b,4,4a,5-tetrahydro-1H-cyclopropa[3,4]cyclopenta[1,2-c]pyrazol-1-yl)acetamide] | > 100 | 0.054
Cn1nc(NS(C)(=O)=O)c2c(Cl)ccc(-n3c([C@H](Cc4cc(F)cc(F)c4)NC(=O)Cn4nc(C(F)F)c5c4C(F)(F)[C@@H]4C[C@H]54)nc4nc(-c5cc(C(F)(F)F)cc(C(F)(F)F)n5)ccc4c3=O)c21 (atropisomer, axis not shown; (P)) [Example 14, N-((S)-1-(7-(4,6-bis(trifluoromethyl)pyridin-2-yl)-(3P)-3-(4-chloro-1-methyl-3-(methylsulfonamido)-1H-indazol-7-yl)-4-oxo-3,4-dihydropyrido[2,3-d]pyrimidin-2-yl)-2-(3,5-difluorophenyl)ethyl)-2-((3bS,4aR)-3-(difluoromethyl)-5,5-difluoro-3b,4,4a,5-tetrahydro-1H-cyclopropa[3,4]cyclopenta[1,2-c]pyrazol-1-yl)acetamide] | > 100 | 0.28
Cn1nc(NS(C)(=O)=O)c2c(Cl)ccc(-n3c([C@H](Cc4cc(F)cc(F)c4)NC(=O)Cn4nc(C(F)F)c5c4C(F)(F)[C@@H]4C[C@H]54)nc4nc(-c5cccc(C(F)F)n5)ccc4c3=O)c21 (atropisomer, axis not shown; (P)) [Example 38, N-((S)-1-((3P)-3-(4-chloro-1-methyl-3-(methylsulfonamido)-1H-indazol-7-yl)-7-(6-(difluoromethyl)pyridin-2-yl)-4-oxo-3,4-dihydropyrido[2,3-d]pyrimidin-2-yl)-2-(3,5-difluorophenyl)ethyl)-2-((3bS,4aR)-3-(difluoromethyl)-5,5-difluoro-3b,4,4a,5-tetrahydro-1H-cyclopropa[3,4]cyclopenta[1,2-c]pyrazol-1-yl)acetamide] | > 100 | 0.051

Reference: patent publication US20220389007A1, “INHIBITORS OF HUMAN IMMUNODEFICIENCY VIRUS REPLICATION” (VIIV HEALTHCARE UK (No. 5) LIMITED, priority 2019, published 2022)
